Laboratory results as given in patent publication US7700775B2, “Compounds and compositions for delivering active agents” (Emisphere Technologies, Inc., priority 2001, dated 2010).
Structures can show the parent of a compound that is named as a salt.

Tests used:
[1] = Oral BIBN4096BS Delivery (plasma BIBN4096BS by LC/MS/MS after oral gavage with delivery agent compound); conditions: previous studies; baseline (no delivery agent stated)
Description: Oral gavage (PO) dosing solutions of delivery agent compound and the Calcitonin gene-related peptide antagonist, 1-Piperidinecarboxamide. […] (BIBN4096BS) in water were prepared. […] The final dosing solutions were prepared by mixing the delivery agent compound with a BIBN4096BS stock solution and diluting to the desired volume (usually 1.0 mL). If necessary, the pH of the mixture was adjusted by the addition of aliquots of aqueous hydrochloric acid solution of an appropriate normality until the final pH of the dosing solution was below 7.0. The final compound amounts per dose were 25 mg/kg of BIBN4096BS, 200 mg/kg of delivery agent compound, in a total volume of 1 mL/kg.
The typical dosing and sampling protocols were as follows. Male Sprague-Dawley rats weighing between 200-250 g were fasted for 24 hours and administered ketamine (44 mg/kg) and chlorpromazine (1.5 mg/kg) 15 minutes prior to dosing. A dosing group of five rats was administered one of the dosing solutions. For oral gavage (PO) dosing, an 11 cm Rusch 8 French catheter was adapted to a 1 mL syringe with a pipette tip. The syringe was filled with dosing solution by drawing the solution through the catheter, which was then wiped dry. […] Plasma BIBN4096BS concentrations were quantified by using a liquid chromatography/mass spectrometry/mass spectrometry assay method using UV detection. […]

CCN(CC)CCNC(=O)c1ccccc1O (as salt: citrate) [Compound 3, N-[2-(diethylamino)ethyl]-2-hydroxybenzamide Mono-citrate]
melting point: 111 to 113 °C

NC(=O)c1ccc(CCCCCCN2CCOCC2)cc1O [Compound 5, 4-(6-morpholin-4-ylhexyl)-salicylamide]
melting point: 70 to 73 °C

CN(C)c1ccc(CNC(=O)c2ccccc2O)cc1 [Compound 4, N-(4-dimethylaminobenzyl) salicylamide]
melting point: 129 to 132 °C

NCCCCC(NC(=O)C(Cc1cc(Br)c(O)c(Br)c1)NC(=O)N1CCC(N2Cc3ccccc3NC2=O)CC1)C(=O)N1CCN(c2ccncc2)CC1 (stereo not drawn) [BIBN4096BS, 1-Piperidinecarboxamide. N-[2-[[5-amino-1-[[4-(4-pyridinyl)-1-piperazinyl)carbonyl]pentyl]amino]-1-[(3,5-dibromo-4-hydroxyphenyl)methyl]-2-oxoethyl]-4(1,4-dihydro-2-oxo-3(2H0-quinazolinyl)-.[R-(R*,S*)]]
baseline values of plasma BIBN4096BS [1]: about 10 ng/mL

CCN(CC)CCNC(=O)c1cc(Cl)ccc1O (as salt: citrate) [Compound 1, N-[2-(diethylamino)ethyl]-5-chloro-2-hydroxybenzamide Mono-citrate]
melting point: 107 to 109 °C

COc1ccc(C(=O)NCCCCCCCCN)c(O)c1 [Compound 18, N-(2-hydroxy-4-methoxybenzoyl)-1,8-diaminooctane]
melting point: 151 to 153 °C
